Results on 14 compounds are retold here after US9073855B2, “BCL-2 selective apoptosis-inducing agents for the treatment of cancer and immune diseases” (AbbVie Inc., priority 2008, dated 2015).

Molecules are shown by their SMILES.

In one experiment the test system is Canine platelets. The experiment is described as follows: Platelet cell viability assay (platelet-rich plasma, Cell Titer Glo). The format is cell-based. The conditions noted are these: Canis lupus familiaris, 5 h, isolated canine platelets ex vivo, five hours at 37° C. On the procedure: After the incubation, platelets were equilibrated to room temperature for 20 minutes and then an equal volume of Cell Titer Glo reagent (Promega Corporation) was added. Samples were mixed for two minutes and then allowed to equilibrate for an additional 10 minutes at room temperature. The luminescence generated from the samples was quantitated using an LJL Analyst plate reader.
The effect of compounds on platelet survival can be directly evaluated ex vivo by examining the viability of isolated canine platelets in the presence of various concentrations of compound.
In general terms: In ATP-based viability assays light output follows the ATP content of the culture.

Another experiment concerns the target GST-Bcl-XL (Homo sapiens, UniProt Q07817). The experiment is described as follows: TR-FRET binding assay, GST-Bcl-XL with F-Bak peptide probe. The conditions noted are these: TR-FRET Binding Affinity, GST-Bcl-XL, F-Bak peptide probe. In outline:
(§1)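 Competitive TR-FRET: GST-fusion protein, fluorescent Bak peptide probe and Tb-labelled anti-GST antibody incubated with compound dilution series (starting 50 μM as 2× stock, 10% DMSO) for 3 h at RT. Excitation 340/35 nm; Ki derived via Wang's exact competitive-binding equation.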
For orientation: In TR-FRET formats the signal depends on donor and acceptor labels being close together.

Another experiment has as its target GST-Bcl-2 (Homo sapiens, UniProt P10415). Kind of experiment: TR-FRET binding assay, GST-Bcl-2 with F-Bak peptide probe. To be noted: for Ki: TR-FRET Binding Affinity, GST-Bcl-2, F-Bak peptide probe; for Binding selectivity ratio (Bcl-XL Ki/Bcl-2 Ki): ratio of TR-FRET Ki values, Bcl-XL over Bcl-2. In outline:
as §1

A further experiment concerns FL5.12/Bcl-2 cells. The experiment is described as follows: FL5.12/Bcl-2 cell viability assay under IL-3 withdrawal (CellTitre Glo). The format is cell-based, murine. To be noted: Mus musculus, IL-3 withdrawn 48 hrs, then 24 hrs with compound. In outline:
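Murine IL-3-dependent FL5.12 cells stably overexpressing Bcl-2 were deprived of IL-3 (WEHI-3B conditioned medium omitted) for 48 hrs, then exposed to various compound concentrations for a further 24 hrs at 37° C, 5% CO2. Viability was read by CellTitre Glo luminescence.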

Chain of GST-Bcl-2 (P10415 whole entry): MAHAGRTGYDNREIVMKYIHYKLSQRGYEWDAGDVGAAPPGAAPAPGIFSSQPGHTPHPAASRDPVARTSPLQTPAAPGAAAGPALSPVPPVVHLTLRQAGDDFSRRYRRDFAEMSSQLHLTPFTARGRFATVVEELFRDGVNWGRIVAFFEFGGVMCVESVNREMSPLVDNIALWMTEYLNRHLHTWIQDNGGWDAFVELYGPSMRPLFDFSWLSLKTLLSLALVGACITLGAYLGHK
Chain of GST-Bcl-XL (Q07817 whole entry, the tested form may be a part): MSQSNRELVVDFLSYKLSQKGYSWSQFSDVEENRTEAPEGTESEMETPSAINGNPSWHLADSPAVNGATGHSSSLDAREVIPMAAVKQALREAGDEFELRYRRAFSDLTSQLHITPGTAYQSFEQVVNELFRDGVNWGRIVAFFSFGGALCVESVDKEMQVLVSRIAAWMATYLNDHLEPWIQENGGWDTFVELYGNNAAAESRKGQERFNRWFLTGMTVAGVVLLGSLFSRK

Regarding `CN1CCC(Nc2ccc(S(=O)(=O)NC(=O)c3ccc(N4CCN(CC5=C(c6ccc(Cl)cc6)CCC5)CC4)cc3Oc3cccc4[nH]ccc34)cc2[N+](=O)[O-])CC1` [Example 148, 4-(4-{[2-(4-chlorophenyl)cyclopent-1-en-1-yl]methyl}piperazin-1-yl)-2-(1H-indol-4-yloxy)-N-({4-[(1-methylpiperidin-4-yl)amino]-3-nitrophenyl}sulfonyl)benzamide], it took 19800 nM to reach a half-maximal effect with Canine platelets (EC50). Besides, the Ki (in general, a dissociation constant, usually derived from enzyme kinetics or from competition with a known ligand) was more than 660 nM on GST-Bcl-XL and 2.89 nM at GST-Bcl-2.

In the case of `CC1(C)CCC(CN2CCN(c3ccc(C(=O)NS(=O)(=O)c4ccc(NCC5CCOCC5)c([N+](=O)[O-])c4)c(Oc4cccc5[nH]ncc45)c3)CC2)=C(c2ccc(Cl)cc2)C1` [Example 400, 4-(4-{[2-(4-chlorophenyl)-4,4-dimethylcyclohex-1-en-1-yl]methyl}piperazin-1-yl)-2-(1H-indazol-4-yloxy)-N-({3-nitro-4-[(tetrahydro-2H-pyran-4-ylmethyl)amino]phenyl}sulfonyl)benzamide], the inhibitory constant (Ki) at GST-Bcl-XL was 36.4 nM; on GST-Bcl-2 it was less than 0.01 nM. For the same compound, in the experiment with FL5.12/Bcl-2 cells, the EC50 (in general, the concentration needed to bring the measured effect to its halfway point) was 8.47 nM.

For the compound `CC1(C)CCC(CN2CCN(c3ccc(C(=O)NS(=O)(=O)c4ccc(NC5CCN(C6CCOCC6)CC5)c([N+](=O)[O-])c4)c(Oc4cccc5[nH]ncc45)c3)CC2)=C(c2ccc(Cl)cc2)C1` [Example 401, 4-(4-{[2-(4-chlorophenyl)-4,4-dimethylcyclohex-1-en-1-yl]methyl}piperazin-1-yl)-2-(1H-indazol-4-yloxy)-N-({3-nitro-4-[(1-tetrahydro-2H-pyran-4-ylpiperidin-4-yl)amino]phenyl}sulfonyl)benzamide], the Ki was 1.62 nM at GST-Bcl-XL and less than 0.01 nM on GST-Bcl-2. Further, the “Binding selectivity ratio (Bcl-XL Ki/Bcl-2 Ki)” value (“Binding selectivity ratio” below) on GST-Bcl-2 is more than 162.1. Further, in the experiment on FL5.12/Bcl-2 cells, the 50% effective concentration (EC50) came out at 5.38 nM.

Take `CC1(C)CCC(CN2CCN(c3ccc(C(=O)NS(=O)(=O)c4ccc(N[C@H]5CC[C@H](N6CCOCC6)CC5)c([N+](=O)[O-])c4)c(Oc4cccc5[nH]ncc45)c3)CC2)=C(c2ccc(Cl)cc2)C1` [Example 402, Trans-4-(4-{[2-(4-chlorophenyl)-4,4-dimethylcyclohex-1-en-1-yl]methyl}piperazin-1-yl)-2-(1H-indazol-4-yloxy)-N-({4-[(4-morpholin-4-ylcyclohexyl)amino]-3-nitrophenyl}sulfonyl)benzamide]: the Ki on GST-Bcl-XL was 4.15 nM; on GST-Bcl-2, 0.03 nM. The “Binding selectivity ratio” value on GST-Bcl-2 is reported as 137.4. The 50% effective concentration (EC50) with FL5.12/Bcl-2 cells stood at 13.4 nM.

As to `CC1(C)CCC(CN2CCN(c3ccc(C(=O)NS(=O)(=O)c4ccc(NCC5CCOCC5)c([N+](=O)[O-])c4)c(Oc4cccc5[nH]cnc45)c3)CC2)=C(c2ccc(Cl)cc2)C1` [Example 403, 2-(1H-benzimidazol-4-yloxy)-4-(4-{[2-(4-chlorophenyl)-4,4-dimethylcyclohex-1-en-1-yl]methyl}piperazin-1-yl)-N-({3-nitro-4-[(tetrahydro-2H-pyran-4-ylmethyl)amino]phenyl}sulfonyl)benzamide], the Ki at GST-Bcl-XL was 24.3 nM; at GST-Bcl-2, 0.003 nM. For the same compound, in the experiment on FL5.12/Bcl-2 cells, the EC50 came out at 2.92 nM.

With `CC1(C)CCC(CN2CCN(c3ccc(C(=O)NS(=O)(=O)c4cnc(OCC5(F)CCOCC5)c(Cl)c4)c(Oc4cccc5[nH]ncc45)c3)CC2)=C(c2ccc(Cl)cc2)C1` [Example 404, N-({5-chloro-6-[(4-fluorotetrahydro-2H-pyran-4-yl)methoxy]pyridin-3-yl}sulfonyl)-4-(4-{[2-(4-chlorophenyl)-4,4-dimethylcyclohex-1-en-1-yl]methyl}piperazin-1-yl)-2-(1H-indazol-4-yloxy)benzamide], the Ki on GST-Bcl-XL is 30.3 nM. Also, on GST-Bcl-2, the affinity, expressed as Ki, was 0.012 nM and the “Binding selectivity ratio” value is 2423.5. For the same compound, the EC50 in the experiment with FL5.12/Bcl-2 cells turned out to be 2.34 nM.

At GST-Bcl-XL, `CC1(C)CCC(CN2CCN(c3ccc(C(=O)NS(=O)(=O)c4cnc(OCC5(F)CCOCC5)c(Cl)c4)c(Oc4cccc5[nH]ccc45)c3)CC2)=C(c2ccc(Cl)cc2)C1` [Example 405, N-({5-chloro-6-[(4-fluorotetrahydro-2H-pyran-4-yl)methoxy]pyridin-3-yl}sulfonyl)-4-(4-{[2-(4-chlorophenyl)-4,4-dimethylcyclohex-1-en-1-yl]methyl}piperazin-1-yl)-2-(1H-indol-4-yloxy)benzamide] registered a Ki of 55.3 nM. Further, on GST-Bcl-2, the Ki worked out at 0.04 nM and the “Binding selectivity ratio” value is 1394.8. In addition, the EC50 in the experiment on FL5.12/Bcl-2 cells is 11.6 nM.

For the compound `CC1(C)CCC(CN2CCN(c3ccc(C(=O)NS(=O)(=O)c4cnc(OCC5(F)CCOCC5)c(C#N)c4)c(Oc4cccc5[nH]ncc45)c3)CC2)=C(c2ccc(Cl)cc2)C1` [Example 406, 4-(4-{[2-(4-chlorophenyl)-4,4-dimethylcyclohex-1-en-1-yl]methyl}piperazin-1-yl)-N-({5-cyano-6-[(4-fluorotetrahydro-2H-pyran-4-yl)methoxy]pyridin-3-yl}sulfonyl)-2-(1H-indazol-4-yloxy)benzamide], the Ki at GST-Bcl-XL was 44.6 nM; on GST-Bcl-2 it was 0.035 nM. In addition, in the experiment with FL5.12/Bcl-2 cells, the EC50 worked out at 20.5 nM.

Take `CC1(C)CCC(CN2CCN(c3ccc(C(=O)NS(=O)(=O)c4ccc(N[C@@H]5CCN(CC(F)F)C5)c([N+](=O)[O-])c4)c(Oc4cccc5[nH]cnc45)c3)CC2)=C(c2ccc(Cl)cc2)C1` [Example 407, 2-(1H-benzimidazol-4-yloxy)-4-(4-{[2-(4-chlorophenyl)-4,4-dimethylcyclohex-1-en-1-yl]methyl}piperazin-1-yl)-N-[(4-{[(3R)-1-(2,2-difluoroethyl)pyrrolidin-3-yl]amino}-3-nitrophenyl)sulfonyl]benzamide]: the values for the Ki on GST-Bcl-XL and on GST-Bcl-2 were 74.6 nM and 0.015 nM, respectively. Also, the “Binding selectivity ratio” value on GST-Bcl-2 came out at 4930.6. The EC50 in the experiment on FL5.12/Bcl-2 cells amounted to 8.1 nM.

For `CC1(C)CCC(CN2CCN(c3ccc(C(=O)NS(=O)(=O)c4ccc(OCC5(F)CCOCC5)c([N+](=O)[O-])c4)c(Oc4cccc5[nH]cnc45)c3)CC2)=C(c2ccc(Cl)cc2)C1` [Example 408, 2-(1H-benzimidazol-4-yloxy)-4-(4-{[2-(4-chlorophenyl)-4,4-dimethylcyclohex-1-en-1-yl]methyl}piperazin-1-yl)-N-({4-[(4-fluorotetrahydro-2H-pyran-4-yl)methoxy]-3-nitrophenyl}sulfonyl)benzamide], the Ki on GST-Bcl-XL was determined as 28.1 nM; at GST-Bcl-2 it was 0.002 nM. For the same compound, in the experiment on FL5.12/Bcl-2 cells, the EC50 amounted to 2.39 nM.

As to `CC1(C)CCC(CN2CCN(c3ccc(C(=O)NS(=O)(=O)c4ccc(NCC5(F)CCOCC5)c([N+](=O)[O-])c4)c(Oc4cccc5[nH]ncc45)c3)CC2)=C(c2ccc(Cl)cc2)C1` [Example 409, 4-(4-{[2-(4-chlorophenyl)-4,4-dimethylcyclohex-1-en-1-yl]methyl}piperazin-1-yl)-N-[(4-{[(4-fluorotetrahydro-2H-pyran-4-yl)methyl]amino}-3-nitrophenyl)sulfonyl]-2-(1H-indazol-4-yloxy)benzamide], the values for the inhibitory constant (Ki) on GST-Bcl-XL and on GST-Bcl-2 were 17.5 nM and less than 0.01 nM, respectively. In addition, the EC50 in the experiment with FL5.12/Bcl-2 cells worked out at 1.2 nM.

Take `CC1(C)CCC(CN2CCN(c3ccc(C(=O)NS(=O)(=O)c4cnc(OCC5(F)CCOCC5)c(C(F)(F)F)c4)c(Oc4cccc5[nH]ncc45)c3)CC2)=C(c2ccc(Cl)cc2)C1` [Example 410, 4-(4-{[2-(4-chlorophenyl)-4,4-dimethylcyclohex-1-en-1-yl]methyl}piperazin-1-yl)-N-{[6-[(4-fluorotetrahydro-2H-pyran-4-yl)methoxy]-5-(trifluoromethyl)pyridin-3-yl]sulfonyl}-2-(1H-indazol-4-yloxy)benzamide]: the Ki was found to be 102 nM on GST-Bcl-XL and 0.055 nM at GST-Bcl-2. In the experiment on FL5.12/Bcl-2 cells, the EC50 amounted to 13.9 nM.

On to `CC1(C)CCC(CN2CCN(c3ccc(C(=O)NS(=O)(=O)c4ccc(NCC5CN(C6CC6)CCO5)c([N+](=O)[O-])c4)c(Oc4cccc5[nH]ncc45)c3)CC2)=C(c2ccc(Cl)cc2)C1` (stereo not shown) [Example 411, 4-(4-{[2-(4-chlorophenyl)-4,4-dimethylcyclohex-1-en-1-yl]methyl}piperazin-1-yl)-N-[(4-{[(4-cyclopropylmorpholin-2-yl)methyl]amino}-3-nitrophenyl)sulfonyl]-2-(1H-indazol-4-yloxy)benzamide], for which the values for the Ki on GST-Bcl-XL and at GST-Bcl-2 were 7.45 nM and 0.003 nM, respectively. Further, the “Binding selectivity ratio” value on GST-Bcl-2 is reported as 2352.3. Also, the concentration giving a half-maximal response (EC50) in the experiment on FL5.12/Bcl-2 cells worked out at 11.4 nM.

Regarding `CC1(C)CCC(CN2CCN(c3ccc(C(=O)NS(=O)(=O)c4ccc(NCC5CCC(F)(F)CC5)c([N+](=O)[O-])c4)c(Oc4cccc5[nH]ncc45)c3)CC2)=C(c2ccc(Cl)cc2)C1` [Example 412, 4-(4-{[2-(4-chlorophenyl)-4,4-dimethylcyclohex-1-en-1-yl]methyl}piperazin-1-yl)-N-[(4-{[(4,4-difluorocyclohexyl)methyl]amino}-3-nitrophenyl)sulfonyl]-2-(1H-indazol-4-yloxy)benzamide], the affinity at GST-Bcl-XL, expressed as Ki, was 135 nM. In addition, on GST-Bcl-2, the affinity corresponds to a Ki of 0.021 nM and the “Binding selectivity ratio” value is on record as 6545.5. For the same compound, the half-maximal effective concentration (EC50) with FL5.12/Bcl-2 cells came out at 9.48 nM.
